From PubChem BioAssay AID365 (MTDP, 2006)
Activity calls are given as the source filed them. How the calls were made is not given here.

target: Ribonuclease HI (Escherichia coli (strain K12)) (UniProt P0A7Y4); experiment: E. coli RNase HI inhibitors, dose response, biochemical, FRET RNA/DNA duplex cleavage (AID 365); settings: E. coli RNase H, FRET RNA/DNA cleavage fluorescence
Sequence (P0A7Y4 whole entry, looked up): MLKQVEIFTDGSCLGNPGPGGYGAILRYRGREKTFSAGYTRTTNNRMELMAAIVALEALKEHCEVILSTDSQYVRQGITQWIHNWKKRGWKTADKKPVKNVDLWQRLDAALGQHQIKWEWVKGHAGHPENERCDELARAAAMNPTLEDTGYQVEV

SMILES | IC50
Cc1ccc(-c2c(C#N)c(SCC(=O)c3ccc(O)c(O)c3)nc3c2CCCC3)o1 | 0.2 µM
C[C@@H]1[C@H](O)c2c(c3c(c4c(-c5ccccc5)cc(=O)oc24)OC(C)(C)C=C3)O[C@@H]1C | 8 µM
O=C1c2ccccc2C(=O)c2c1cc(O)c(O)c2O | inactive
CC(C)c1ccc(O)c(O)c(=O)c1 | inactive
O=C(O)C1Nc2c(Cl)cc(Cl)cc2C2C=CCC12 (centres undefined) | inactive
CC(C)=CCC1=C(O)[C@@](O)(CC=C(C)C)C(=O)C(C(=O)CC(C)C)=C1O | inactive
Cc1ccc(C)n1-c1ccc(SCC(=O)O)cc1 | > 100 µM (inactive)
Cc1ccc(C(=O)Nc2sc(C)c(C)c2C(N)=O)cc1 | 2.2 µM
O=C1NC(=S)N(c2ccc(Cl)cc2)C(=O)/C1=C\C=C\c1ccccc1[N+](=O)[O-] | 8.8 µM
COc1cc(C=O)ccc1OCCCOc1cccc(Oc2ccccc2)c1 | 4.1 µM
Cc1cc(O)c2c(c1O)C(=O)c1cccc(O)c1C2=O | > 100 µM (inactive)
COc1cccc2cc(C(N)=O)c(=O)oc12 | > 100 µM (inactive)
CC(C)=CCC[C@]1(C)[C@@H](CC=C(C)C)C[C@@]2(CC=C(C)C)C(=O)/C(=C(\O)c3ccc(O)c(O)c3)C(=O)[C@]1(CC=C(C)C)C2=O | 2.1 µM
O=C1NC(=S)N(c2cccc(Cl)c2)C(=O)/C1=C\C=C\c1ccco1 | inactive
Cc1ccc(C2COc3cc(O)c(O)cc3C2)cc1 (centres undefined) | inactive
CC1=C(CCC(=O)O)c2cc3nc(cc4[nH]c(cc5[nH]c(cc1n2)c(C)c5C(C)O)c(C)c4C(C)O)C(C)=C3CCC(=O)O (centres undefined) | > 100 µM (inactive)
Cc1ccc(S(=O)(=O)N=C2C=CC(=O)C=C2)c(C)c1 | 7.8 µM
NC(=O)c1c(N)sc2c1CCCCC2 | > 100 µM (inactive)
O=C1NC(=S)N(c2ccc(Cl)cc2)C(=O)/C1=C/c1ccco1 | inactive
Oc1ccc(/C=N/Nc2nncc(-c3ccccc3)n2)c(O)c1O | 7 µM
COc1ccc(-c2nc3sc(-c4ccc(OC)cc4)nc3s2)cc1 | > 100 µM (inactive)
NC(=O)c1c(NC(=O)COc2ccccc2)sc2c1CCCCC2 | 2 µM
O=C1c2ccccc2C(=O)c2c(NC3CCCCC3)ccc(Nc3ccc(S(=O)(=O)O)cc3)c21 | inactive
O=[N+]([O-])c1ccc2c(N=Nc3ccc4ccccc4c3O)c(O)cc(S(=O)(=O)O)c2c1 | 3 µM
Cc1cc(C)c2c(=O)[nH]c(SCC(=O)c3ccc(O)c(O)c3)nc2n1 | 18 µM

SMILES | IC50
O=C(Oc1ccccc1)Oc1c(Cl)cc2oc(=O)sc2c1Cl | 7.8 µM
Oc1c(Br)cc(/C=N/Nc2nnc3c(n2)[nH]c2ccccc23)c(Br)c1O | 4.3 µM
CC(=O)/C=C/C=C/c1ccc2c(c1)OC(CO)C(c1ccc(O)c(O)c1)O2 (centres undefined) | inactive
COc1ccc(N2C(=O)/C(=C\c3cn(CC(=O)Nc4ccccc4)c4ccccc34)C(=O)NC2=S)cc1 | 2.2 µM
O=C1/C(=C/c2ccc(O)c(O)c2)SC(=S)N1c1ccc(O)cc1 | 8 µM
Cc1c(O)c(Br)c(C)c(O)c1Br (tested in a mixture with another compound) | > 100 µM (inactive)
O=C1C=CC(=O)c2c(O)cccc21 | 4.9 µM
CN(C)S(=O)(=O)c1ccc(Nc2ccc(O)c3c2C(=O)c2c([N+](=O)[O-])ccc(O)c2C3=O)cc1 | 8 µM
Cc1ccc(C)n1-c1ccc(Br)cc1C(=O)O | inactive
CC(=O)O[C@H](C)[C@@H]1C2=C(C(=O)C[C@]1(C)O)C(=O)c1c(ccc(-c3ccc4c(c3O)C(=O)C3=C(C4=O)[C@@H]([C@@H](C)OC(C)=O)[C@@](C)(O)CC3=O)c1O)C2=O | > 100 µM (inactive)
O=C1C(Cl)=C(NC(=O)c2ccccc2)C(=O)C(Cl)=C1NC(=O)c1ccccc1 | > 100 µM (inactive)
O=c1c(O)c(-c2cc(O)c(O)c(O)c2)oc2cc(O)cc(O)c12 | inactive
CCOc1ccc(N2C(=O)/C(=C/c3ccc(Br)o3)C(=O)NC2=S)cc1 | 0.8 µM
Cc1cc(-c2ccc(C=C3C(=O)NC(=S)NC3=O)o2)c([N+](=O)[O-])cc1C | 8.8 µM
Cc1ccc(S(=O)(=O)/N=C2\C=CC(=O)C=C2Cl)cc1 | inactive
Cc1ccc(-c2cc(C(=O)Nc3sc(C(=O)OC(C)C)c(C)c3C(N)=O)c3ccccc3n2)s1 | 1.8 µM
Cc1cc(-c2ccco2)c(C#N)c(SCC(=O)c2ccc(O)c(O)c2)n1 | 1.1 µM
O=[N+]([O-])c1ccc(S(=O)(=O)Cc2ccccc2)c2nonc12 | inactive
CC1=C(C)CC(C(=O)Nc2ccc(N3C(=O)c4ccccc4C3=O)cc2)C(C(=O)O)C1 (centres undefined) | > 100 µM (inactive)
COc1cc(/C=N\c2sc3c(c2C(=O)NCc2ccccc2)CCCC3)cc(Cl)c1O | 0.95 µM
Cc1cc(I)c2c(c1)C1C=CCC1C(C(=O)O)N2 (centres undefined) | inactive
O=c1c(O)cccc2cc(O)c(O)c(O)c12 | inactive
CCOc1ccc(NC(=O)c2c(NC(=O)c3ccco3)sc3c2CCCCC3)cc1 | inactive
C[N+](C)=c1ccc2nc3c(cc(Nc4ccccc4)c4ccccc43)oc-2c1 | 2.8 µM
COc1ccccc1NC(=O)c1c(NC(=O)Cc2ccccc2)sc2c1CCCCC2 | 0.26 µM

SMILES | IC50
O=C1O/C(=C(/C(=O)O)c2ccc(O)cc2)C(O)=C1c1cc2c3c(c(O)cc(C4=C(O)/C(=C(\C(=O)O)c5ccc(O)cc5)OC4=O)c3c1)OC2=O | inactive
Cc1ccc(N2C(=O)/C(=C/c3ccc(O)c(O)c3)SC2=S)cc1C | 2 µM
O=C(O)/C=C/c1c2ccc(=O)c(O)c-2oc2c(O)c(O)ccc12 | 2 µM
CC1C2C=CC1C(c1c3ccc(=O)c(O)c-3oc3c(O)c(O)ccc13)C2C(=O)O (centres undefined) | 1.3 µM
O=C1C=C/C(=N\S(=O)(=O)c2cc(Cl)ccc2Cl)C=C1Cl | 7 µM
Cc1sc(NC(=O)c2ccc3c(c2)OCO3)c(C(N)=O)c1C | 4 µM
N#Cc1c(NC(=O)C(F)(F)F)sc2c3c(=O)c4ccccc4c(=O)c=3oc3ccccc3c12 | inactive
O=C1C(Cl)=CC(=NS(=O)(=O)c2ccccc2)C=C1Cl | inactive
Cc1ccccc1-n1c(O)c(C=C2C=CC=N2)c(=O)[nH]c1=S | 8 µM
CCN1C(=O)/C(=C/c2ccoc2)C(=O)NC1=S | inactive
O=C(O)CCc1c2ccc(=O)c(O)c-2oc2c(O)c(O)ccc12 | 1.5 µM
COc1c(OC)c(O)c2c(=O)cc(-c3ccc(O)c(O)c3)oc2c1OC | inactive
C[C@]12Cc3cnc(-c4ccccc4)nc3C[C@@H]1CC[C@@H]1[C@@H]2CC[C@@]2(C)[C@H]1CC[C@]2(C)O | inactive
Cc1cc(C(=O)O)ccc1-n1c(C)ccc1C | > 100 µM (inactive)
O=C1/C(=C/c2ccco2)C(=O)N(c2ccc(Br)cc2)C(=S)N1c1ccccc1 | inactive
c1ccc(C(c2cccc3c2ccc2ccccc23)C(c2ccccc2)c2cccc3c2ccc2ccccc23)cc1 (centres undefined) | 7.5 µM
O=C1c2ccccc2C(=O)c2c(O)c(O)cc(O)c21 | inactive
Cc1ccc(-c2n[nH]c(=S)n2/N=C/c2ccc(O)c(O)c2O)cc1 | inactive
O=C1/C(=C\c2ccc(O)c(O)c2)SC(=S)N1c1cccc(Cl)c1 | 2.9 µM
O=[N+]([O-])c1cc(Cc2cc([N+](=O)[O-])c3cccnc3c2O)c(O)c2ncccc12 | inactive
CCOc1ccc(C(=O)Nc2ccc3c(c2)C(=O)c2ccccc2C3=O)cc1 | 4 µM
Cc1ccc(NC(=O)c2c(NC(=O)c3ccccc3F)sc3c2CCCCC3)cc1 | 0.6 µM
O=C(Nc1sc2c(c1C(=O)Nc1cccc3ccccc13)CCCCC2)c1ccccc1F | 5 µM
NC(=O)c1c(NC(=O)CCc2ccccc2)sc2c1CCCCCC2 | 2 µM
C=C(CCC(C(=O)O)C1CCC2(C)C3=C(CCC12C)C1(C)CCC(O)C(C)(C)C1CC3)C(C)C (centres undefined) | 9 µM

SMILES | IC50
O=C(N/N=C/c1ccccc1Cl)c1cc(O)c(O)c(O)c1 | inactive
N#Cc1c(N)nc(SCC(=O)c2ccc(O)c(O)c2)c(C#N)c1-c1ccc(O)cc1 | 1.7 µM
C=CCn1c(N)c(-c2nc3ccccc3[nH]2)sc1=S | inactive
Nc1ccc(N=Nc2ccc(-c3ccc(O)cc3)cc2)c2ccc(S(=O)(=O)O)cc12 | inactive
O=C1C(Cl)=C/C(=N\S(=O)(=O)c2ccc(Cl)cc2)C(Cl)=C1Cl | inactive
Cc1cc(=O)c2c(O)c3c(O)cc(O)c4c5c(O)cc(O)c6c(O)c7c(=O)cc(C)c8c1c2c(c34)c(c65)c78 | inactive
O=c1oc2ccccc2c(O)c1/C=C1\C=Nc2ccccc21 | inactive
CCOc1cccc(N2C(=O)/C(=C/c3cn(CC(=O)OC)c4ccccc34)C(=O)NC2=S)c1 | 6.2 µM
CC(C)c1cccc(O)c(=O)c1 | > 100 µM (inactive)
Cc1nn(CC(=O)Nc2sc(C)c(C)c2C(N)=O)c(C)c1[N+](=O)[O-] | 8.2 µM
O=C1C(Cl)=C(Nc2ccc(S(=O)(=O)Nc3ccccn3)cc2)C(=O)c2ccccc21 | 80 µM
FC(F)(F)c1nc2ccc(SSc3ccc4nc(C(F)(F)F)[nH]c4c3)cc2[nH]1 | 8 µM
CC(C)c1ccc(O)c(=O)cc1 | > 100 µM (inactive)
Nc1ccc(S(=O)(=O)O)c2cccc(O)c12 | inactive
COc1ccc(/C=C\C(=O)c2c(-c3ccccc3)c3cc(C)ccc3[nH]c2=O)c(OC)c1 | 9 µM
COc1ccc(NC(=O)c2c(N)sc(-c3ccccc3)c2C)cc1 | 2 µM
CC1Oc2cc3c(-c4c(O)cc(O)c5c(O)c6c(cc45)OC(C)C(C)C6=O)c(O)cc(O)c3c(O)c2C(=O)C1C (centres undefined) | inactive
Cc1cccc(NCC(=O)N/N=C\c2c(Br)cc(Br)c(O)c2Br)c1 | inactive
O=C1NC(=S)N(c2ccccc2F)C(=O)/C1=C/c1ccc(OCc2cccc(C(=O)O)c2)cc1 | inactive
O=C1NC(=O)/C(=C/c2ccc(-c3ccc(O)c(C(=O)O)c3)o2)S1 | 1.3 µM
Cc1sc(NC(=O)C2CC3CCC2C3)c(C(N)=O)c1C (centres undefined) | inactive
CCOc1ccc(NC(=O)c2c(NC(=O)c3ccccc3)sc3c2CCCCC3)cc1 | 0.33 µM
Cc1sc(NC(=O)c2ccc(Br)o2)c(C(N)=O)c1C | 4 µM
CC(C)c1ccc(O)c(O)c(=O)c1 (tested in a mixture with another compound) | inactive
